Assay results as given in patent US20180119123A1, “CRISPR/CAS-RELATED METHODS AND COMPOSITIONS FOR TREATING HIV INFECTION AND AIDS” (EDITAS MEDICINE, INC., priority 2015, published 2018).
Entries after “also recorded” stand apart in the source; their conditions may differ.

Assays:
[1] = tested on: human mobilized peripheral blood CD34^+ HSCs; test: Fold change in CD34+ cell number (trypan blue count) 96 hours after Nucleofection; format: cell-based
Procedure: (§1) Human CD34^+ HSCs cells from mobilized peripheral blood (AllCells) were thawed into StemSpan Serum-Free Expansion Medium (SFEM™, StemCell Technologies) containing 100 ng/mL each of the following cytokines: human stem cell factor (SCF), thrombopoietin (TPO), and flt-3 ligand (FL) (all from Peprotech). Cells were grown for 3 days in a humidified incubator and 5% CO2 20% O2. […] The published use of UM171 involved prolonged exposure of HSCs to the small molecule for ex vivo expansion of HSCs. In the current experiment, HSCs were exposed to UM171 for 2 hours before and 24 hours after delivery of Cas9 and gRNA plasmid DNA. This UM171 treatment protocol was based on pilot studies performed by the inventors that indicated acute pre-treatment with UM171 before lentivirus vector mediated gene delivery improved HSC viability compared to HSCs treated with vehicle (dimethylsulfoxide, DMSO, Sigma) alone. […] At 96 hours after Nucleofection™, CD34^+ cells were counted for by trypan blue exclusion and divided into 3 portions for the following analyses: a) flow cytometry analysis for assessment of viability by co-staining with 7-Aminoactinomycin-D (7-AAD) and allophycocyanin (APC)-conjugated Annexin-V antibody (ebioscience); b) flow cytometry analysis for maintenance of HSC phenotype (after co-staining with phycoerythrin (PE)-conjugated anti-human CD34 antibody and fluorescein isothicyanate (FITC)-conjugated anti-human CD90, both from BD Bioscience; c) hematopoietic colony forming cell (CFC) analysis by plating 1500 cells in semi-solid methylcellulose based Methocult medium (StemCell Technologies) that supports differentiation of erythroid and myeloid blood cell colonies from HSCs and serves as a surrogate assay to evaluate HSC multipotency and differentiation potential ex vivo; d) genomic DNA analysis for detection of editing at the CCR5 locus. […]

CD34^+ HSCs = test: Hematopoietic colony forming cell (CFC) assay in Methocult medium; format: cell-based, human; conditions: Nucleofection with wild-type Cas9 and CCR5-U43 gRNA plasmid DNA + UM171; two weeks
Procedure: Human CD34^+ HSCs cells from mobilized peripheral blood (AllCells) were thawed into StemSpan Serum-Free Expansion Medium (SFEM™, StemCell Technologies) containing 100 ng/mL each of the following cytokines: human stem cell factor (SCF), thrombopoietin (TPO), and flt-3 ligand (FL) (all from Peprotech). Cells were grown for 3 days in a humidified incubator and 5% CO2 20% O2. […] The published use of UM171 involved prolonged exposure of HSCs to the small molecule for ex vivo expansion of HSCs. In the current experiment, HSCs were exposed to UM171 for 2 hours before and 24 hours after delivery of Cas9 and gRNA plasmid DNA. This UM171 treatment protocol was based on pilot studies performed by the inventors that indicated acute pre-treatment with UM171 before lentivirus vector mediated gene delivery improved HSC viability compared to HSCs treated with vehicle (dimethylsulfoxide, DMSO, Sigma) alone. After the 2-hour pretreatment with UM171, 1 million […] HSCs were Nucleofected™ with the Amaxa™ 4D Nucleofector™ device (Lonza), Program EO100 using components of the P3 Primary Cell 4D-Nucleofector Kit™ (Lonza) according to the manufacturer's instructions. Briefly, one million cells were suspended in Nucleofector™ solution and the following amounts of plasmid DNA were added to the cell suspension: 1250 ng plasmid expressing CCR5 gRNA (CCR5-U43) from the human U6 promoter and 3750 ng plasmid expressing wild-type S. pyogenes Cas 9 transcriptionally regulated by the CMV promoter. After Nucleofection™, cells were plated into Stemspan-SFEM™ supplemented with SCF, TPO, FL and 40 nM UM171. After overnight incubation, HSCs were plated in Stemspan-SFEM™ plus cytokines without UM171. At 96 hours after Nucleofection™, CD34^+ cells were counted for by trypan blue exclusion and divided into 3 portions for the following analyses: a) flow cytometry analysis for assessment of viability by co-staining with 7-Aminoactinomycin-D (7-AAD) and allophycocyanin (APC)-conjugated Annexin-V antibody (ebioscience); b) flow cytometry analysis for maintenance of HSC phenotype (after co-staining with phycoerythrin (PE)-conjugated anti-human CD34 antibody and fluorescein isothicyanate (FITC)-conjugated anti-human CD90, both from BD Bioscience; c) hematopoietic colony forming cell (CFC) analysis by plating 1500 cells in semi-solid methylcellulose based Methocult medium (StemCell Technologies) that supports differentiation of erythroid and myeloid blood cell colonies from HSCs and serves as a surrogate assay to evaluate HSC multipotency and differentiation potential ex vivo; d) genomic DNA analysis for detection of editing at the CCR5 locus. Genomic DNA was extracted from HSCs 96 hours after Nucleofection™, and CCR5 locus-specific PCR reactions were performed.
To evaluate maintenance of HSC potency and differentiation potential, two weeks after plating CD34^+ HSCs in CFC assays, hematopoietic activity was quantified based on scoring the HSC progeny by enumerating the total number of hematopoietic colony forming units (CFU) and the frequencies of specific blood cell phenotypes, including: mixed myeloid/erythroid (Granulocyte-erythroid-monocyte macrophage, CFU-GEMM), myeloid (CFU-macrophage (M), granulocyte-macrophage (CFU-GM)) and erythroid (CFU-E) colonies. CD34^+ HSCs that were Nucleofected™ after UM171 pre-treatment maintained CFC potential compared to un-Nucleofected™ HSCs (Table 12). In contrast, CD34^+ HSCs that were Nucleofected™ without UM171 pre-treatment had reduced CFC potential (lower total CFC counts and reduced numbers of mixed-phenotype colonies (CFU-GEMM) and erythroid colonies (CFU-E)) in comparison to un-Nucleofected™ CD34^+ HSCs.
Human CD34^+ HSCs cells from mobilized peripheral blood (AllCells) were thawed into StemSpan Serum-Free Expansion Medium (SFEM, StemCell Technologies) containing 100 ng/mL each of the following cytokines: human stem cell factor (SCF), thrombopoietin (TPO), and flt-3 ligand (FL) (all from Peprotech). […]

[2] = tested on: human mobilized peripheral blood CD34^+ HSCs; test: Viability by 7-AAD / Annexin-V flow cytometry 96 hours after Nucleofection; format: cell-based
Procedure: as §1

Cn1nnc(-c2ccc3c(c2)[nH]c2nc(Cc4ccccc4)nc(N[C@H]4CC[C@H](N)CC4)c23)n1 [UM171, (1r,4r)-N1-(2-benzyl-7-(2-methyl-2H-tetrazol-5-yl)-9H-pyrimido[4,5-b]indol-4-yl)cyclohexane-1,4-diamine] was tested, and the “Fold expansion / proliferation potential of Nucleofected CD34+ cells with UM171 pre-treatment versus without” value ([1]; 40 nM UM171, S. aureus or S. pyogenes Cas9 and CXCR4 gRNA plasmids) was “higher fold-expansion; also recorded: maintain proliferation potential”, the “Fold change in cell number of CD34^+ cells (96 hours vs. time 0 cell number)” value ([1]; Nucleofection with wild type Cas9 and CCR5-U43 gRNA plasmid DNA + UM171 treatment (40 nM, 2 hours before and 24 hours after)) was 1.5 and the “Number of colony forming units: E” value (CD34^+ HSCs) was 92 colony forming units per 1500 CD34^+ HSCs plated. The “Number of colony forming units: G” value (CD34^+ HSCs) was 40 colony forming units per 1500 CD34^+ HSCs plated, the “Number of colony forming units: GEMM” value (CD34^+ HSCs) was 20 colony forming units per 1500 CD34^+ HSCs plated and the “Number of colony forming units: GM” value (CD34^+ HSCs) was 32 colony forming units per 1500 CD34^+ HSCs plated. The “Number of colony forming units: M” value (CD34^+ HSCs) was 64 colony forming units per 1500 CD34^+ HSCs plated, the “Number of colony forming units: Total” value (CD34^+ HSCs) was 228 colony forming units per 1500 CD34^+ HSCs plated and the “Effect of UM171 on CD34+ HSC viability, survival and proliferation after Nucleofection” value ([2]; 40 nM UM171, 2 hours before and 24 hours after Nucleofection with Cas9 and CCR5-U43 gRNA plasmid DNA) was “preserved CD34^+ HSC viability; also recorded: critical for maintenance of HSC survival and proliferation”. For the same compound, the “Effect of UM171 on HSC survival and proliferation after Nucleofection” value ([2]; pre-treatment and short-term (24-hour) co-culture, Cas9 and CXCR4 gRNA plasmid DNA) was “critical for maintenance of HSC survival and proliferation”.
